Results taken from patent US8758816B2, “Compositions comprising azelastine and methods of use thereof” (priority 2004, dated 2014).
Counter-ions that a name gives are not always drawn.

Test system: patients with seasonal allergic rhinitis (SAR)
Assay: MP 428 two-week randomized double-blind study: Total Nasal Symptom Score (TNSS), change from baseline
Type: in vivo, human
Set-up: key to Change from Baseline in AM TNSS, Mean / Change from Baseline in AM TNSS, LS Mean / Change from Baseline in AM TNSS, Median: TNSS sum of 4 symptoms each 0-3 (0=none, 3=severe); change from baseline
Experimental: A two-week, randomized, double-blind study, which evaluated the effects of the co-administration of ASTELIN® (azelastine hydrochloride (HCl)) and FLONASE® (fluticasone propionate) compared to either product alone in patients with seasonal allergic rhinitis (SAR) was conducted during the 2006 Texas mountain cedar season. After a 5-day placebo lead-in period, 151 patients with moderate-to-severe allergic rhinitis symptoms were randomized to either: (1) (49 total patients) ASTELIN® (azelastine hydrochloride (HCl)) plus placebo saline nasal spray 2 sprays per nostril, 15 minutes apart, twice daily (AM & PM); (2) (50 total patients) FLONASE® (fluticasone propionate) plus placebo saline nasal spray, 2 sprays per nostril, 15 minutes apart, once daily (AM) and two sessions of placebo saline nasal spray, 2 sprays per nostril, 15 minutes apart (PM); or (3) (52 total patients) the co-administration of ASTELIN® (azelastine hydrochloride (HCl)) 2 sprays per nostril plus FLONASE® (fluticasone propionate) 2 sprays per nostril (AM), 15 minutes apart, and ASTELIN® (azelastine hydrochloride (HCl)) 2 sprays per nostril plus placebo saline nasal spray, 15 minutes apart, (PM) for a 2-week double-blind treatment period.
The primary efficacy variable was the change from baseline in the Total Nasal Symptom Score (TNSS), which comprised sneezing, itchy nose, runny nose, and nasal congestion (individual symptoms scores were assigned a value between 0 and 3, where 0=no symptoms and 3=severe symptoms). This study was not statistically designed to assess the differences between ASTELIN® and FLONASE®.

[1] = Day 2, Intent-to-Treat Population
[2] = Day 3, Intent-to-Treat Population
[3] = Day 4, Intent-to-Treat Population
[4] = Day 5, Intent-to-Treat Population

SMILES: CN1CCCC(n2nc(Cc3ccc(Cl)cc3)c3ccccc3c2=O)CC1 (racemic) [Azelastine, (±)-1-(2H)-phthalazinone, 4-[(4-chlorophenyl)methyl]-2-(hexahydro-1-methyl-1H-azepin-4-yl)-, mono-hydrochloride]
- Primary Reason for Discontinuation From Study: Treatment Failure (All Randomized Patients): 0 (0.0) N (%)
- Change from Baseline in AM TNSS, LS Mean [1]: −1.46
- Change from Baseline in AM TNSS, Mean [1]: −1.48
- Change from Baseline in AM TNSS, Median [1]: −1.25
- Change from Baseline in AM and PM Combined TNSS, Mean [1]: −3.23
- Change from Baseline in AM and PM Combined TNSS, Median [1]: −2.67
- Change from Baseline in PM TNSS, LS Mean [1]: −1.65
- Change from Baseline in PM TNSS, Mean [1]: −1.76
- Change from Baseline in PM TNSS, Median [1]: −1.00
- Percent Change from Baseline in AM TNSS, LS Mean [1]: −15.45%
- Percent Change from Baseline in AM TNSS, Mean [1]: −15.79%
- Percent Change from Baseline in AM TNSS, Median [1]: −14.29%
- Percent Change from Baseline in AM and PM Combined TNSS, LS Mean [1]: −16.31%
- Percent Change from Baseline in AM and PM Combined TNSS, Mean [1]: −16.93%
- Percent Change from Baseline in AM and PM Combined TNSS, Median [1]: −12.31%
- Percent Change from Baseline in PM TNSS, LS Mean [1]: −17.15%
- Percent Change from Baseline in PM TNSS, Mean [1]: −17.76%
- Percent Change from Baseline in PM TNSS, Median [1]: −10.00%
- Change from Baseline in AM and PM Combined TNSS, LS Mean (Day 2, Intent-to-Treat Population, ANCOVA model): −3.10
- Change from Baseline in AM and PM Combined TNSS, LS Mean (Day 2, Per-Protocol Population): −3.08
- Change from Baseline in AM and PM Combined TNSS, Mean (Day 2, Per-Protocol Population): −3.23
- Change from Baseline in AM and PM Combined TNSS, Median (Day 2, Per-Protocol Population): −2.67
- Percent Change from Baseline in AM and PM Combined TNSS, LS Mean (Day 2, Per-Protocol Population): −16.25%
- Percent Change from Baseline in AM and PM Combined TNSS, Mean (Day 2, Per-Protocol Population): −16.93%
- Percent Change from Baseline in AM and PM Combined TNSS, Median (Day 2, Per-Protocol Population): −12.31%
- Change from Baseline in AM TNSS, LS Mean [2]: −1.28
- Change from Baseline in AM TNSS, Mean [2]: −1.29
- Change from Baseline in AM TNSS, Median [2]: −0.80
- Change from Baseline in AM and PM Combined TNSS, Mean [2]: −3.28
- Change from Baseline in AM and PM Combined TNSS, Median [2]: −1.67
- Change from Baseline in PM TNSS, LS Mean [2]: −1.91
- Change from Baseline in PM TNSS, Mean [2]: −1.98
- Change from Baseline in PM TNSS, Median [2]: −1.50
- Percent Change from Baseline in AM TNSS, LS Mean [2]: −13.37%
- Percent Change from Baseline in AM TNSS, Mean [2]: −13.75%
- Percent Change from Baseline in AM TNSS, Median [2]: −7.89%
- Percent Change from Baseline in AM and PM Combined TNSS, LS Mean [2]: −16.85%
- Percent Change from Baseline in AM and PM Combined TNSS, Mean [2]: −17.08%
- Percent Change from Baseline in AM and PM Combined TNSS, Median [2]: −8.11%
- Percent Change from Baseline in PM TNSS, LS Mean [2]: −19.66%
- Percent Change from Baseline in PM TNSS, Mean [2]: −20.01%
- Percent Change from Baseline in PM TNSS, Median [2]: −15.15%
- Change from Baseline in AM and PM Combined TNSS, LS Mean (Day 3, Intent-to-Treat Population, ANCOVA model): −3.21
- Change from Baseline in AM and PM Combined TNSS, LS Mean (Day 3, Per-Protocol Population): −3.19
- Change from Baseline in AM and PM Combined TNSS, Mean (Day 3, Per-Protocol Population): −3.28
- Change from Baseline in AM and PM Combined TNSS, Median (Day 3, Per-Protocol Population): −1.67
- Percent Change from Baseline in AM and PM Combined TNSS, LS Mean (Day 3, Per-Protocol Population): −16.85%
- Percent Change from Baseline in AM and PM Combined TNSS, Mean (Day 3, Per-Protocol Population): −17.08%
- Percent Change from Baseline in AM and PM Combined TNSS, Median (Day 3, Per-Protocol Population): −8.11%
- Change from Baseline in AM TNSS, LS Mean [3]: −1.79
- Change from Baseline in AM TNSS, Mean [3]: −1.76
- Change from Baseline in AM TNSS, Median [3]: −1.33
- Change from Baseline in AM and PM Combined TNSS, Mean [3]: −3.93
- Change from Baseline in AM and PM Combined TNSS, Median [3]: −2.92
- Change from Baseline in PM TNSS, LS Mean [3]: −2.09
- Change from Baseline in PM TNSS, Mean [3]: −2.17
- Change from Baseline in PM TNSS, Median [3]: −2.20
- Percent Change from Baseline in AM TNSS, LS Mean [3]: −18.88%
- Percent Change from Baseline in AM TNSS, Mean [3]: −18.84%
- Percent Change from Baseline in AM TNSS, Median [3]: −14.89%
- Percent Change from Baseline in AM and PM Combined TNSS, LS Mean [3]: −20.41%
- Percent Change from Baseline in AM and PM Combined TNSS, Mean [3]: −20.50%
- Percent Change from Baseline in AM and PM Combined TNSS, Median [3]: −14.29%
- Percent Change from Baseline in PM TNSS, LS Mean [3]: −21.42%
- Percent Change from Baseline in PM TNSS, Mean [3]: −21.99%
- Percent Change from Baseline in PM TNSS, Median [3]: −23.08%
- Change from Baseline in AM and PM Combined TNSS, LS Mean (Day 4, Intent-to-Treat Population, ANCOVA model): −3.89
- Change from Baseline in AM and PM Combined TNSS, LS Mean (Day 4, Per-Protocol Population): −3.87
- Change from Baseline in AM and PM Combined TNSS, Mean (Day 4, Per-Protocol Population): −3.93
- Change from Baseline in AM and PM Combined TNSS, Median (Day 4, Per-Protocol Population): −2.92
- Percent Change from Baseline in AM and PM Combined TNSS, LS Mean (Day 4, Per-Protocol Population): −20.39%
- Percent Change from Baseline in AM and PM Combined TNSS, Mean (Day 4, Per-Protocol Population): −20.50%
- Percent Change from Baseline in AM and PM Combined TNSS, Median (Day 4, Per-Protocol Population): −14.29%
- Change from Baseline in AM TNSS, LS Mean [4]: −2.25
- Change from Baseline in AM TNSS, Mean [4]: −2.23
- Change from Baseline in AM TNSS, Median [4]: −1.67
- Change from Baseline in AM and PM Combined TNSS, Mean [4]: −4.48
- Change from Baseline in AM and PM Combined TNSS, Median [4]: −3.67
- Change from Baseline in PM TNSS, LS Mean [4]: −2.19
- Change from Baseline in PM TNSS, Mean [4]: −2.25
- Change from Baseline in PM TNSS, Median [4]: −1.20
- Percent Change from Baseline in AM TNSS, LS Mean [4]: −23.57%
- Percent Change from Baseline in AM TNSS, Mean [4]: −23.62%
- Percent Change from Baseline in AM TNSS, Median [4]: −15.79%
- Percent Change from Baseline in AM and PM Combined TNSS, LS Mean [4]: −23.20%
